Each structure is given as a SMILES string. Converted amounts (≈) assume the structure as drawn. Where two headings read alike, the source gives them in different places. Bounds are passed on as bounds.

A word on the MIC: it is the lowest concentration that inhibits growth of the organism. In general, CC50 refers to the concentration giving 50% cytotoxicity.

Common to all, as to format: cell-based
One series deals with M. abscessus. Briefly: Antibacterial activity MIC, M. abscessus. The note with it: Mycobacteroides abscessus.
Series [1] can be described thus: Cytotoxicity evaluation on HCT-116 cell line (SRB). The note with it: human, HCT-116 cells, 72 hours treatment, read-out: Anti-HCT116 CC50. On the procedure:
(§1) The biological activity of the compounds of the present invention were evaluated. The activity against mycobacteria (Mtb) was assessed by minimum inhibitory concentration values (MIC, µM) determination. The selectivity index (SI) is defined as: SI = (CC50)/(MIC) [formula] wherein CC50 refers to the half maximal cytotoxic concentration of compounds towards particular eukaryotic cells, either for HCT116 cells and/or VERO cells; MIC refers to the minimum inhibitory concentration of the compounds towards mycobacteria.
Human HCT-116 colon cancer cells were seeded in 96-well plates (2500 cells/well) 24 hours before being treated for 72 hours with the tested compounds. Cells were grown and treated in DMEM 10% FBS. For each compound, 11 concentrations, corresponding to twofold serial dilutions from the maximum concentration, were evaluated, with each concentration tested in duplicate. DMSO was set at 0.5% final concentration in each well, including in the untreated conditions. At the end of the treatment, cells were fixed 1 hour at 4°C by addition of cold 10 % trichloroacetic acid to a final 3.33 % concentration, then washed 4 times with water. The plates were dried and the cells stained for 30 minutes with 0.057 % (wt/vol) Sulforhodamine B (SRB) in 1% acetic acid, then washed 4 times with 1% acetic acid and dried. The dye was resuspended by a 1 h 30 incubation in 200 µL of 10 mM Tris-base and the absorbance at 490 nm measured with a plate reader (µquant, Bio-tek). For normalization, the background value was subtracted to each value, the duplicates averaged and the untreated condition set to 100% cell viability. CC50 were computed from at least three independent experiments using the GraphPad Prism software using a non-linear regression to a four-parameter logistic curve (log[inhibitor] vs response; variable slope).

The nature of series [2]: Cytotoxicity evaluation on Vero cell line (MTT). The note with it: Vero cells, read-out: Anti-VERO CC50. As to the method: as §1
Cytotoxicity evaluation of the tested molecules by MTT assay was performed on the Vero cell line. Briefly, cells (5.10^4 cells/mL) in 100 µL of complete medium [MEM supplemented with 10% fetal calf serum (FCS), 2 mM L-glutamine and antibiotics (100U/mL penicillin and 100 µg/mL streptomycin)] were seeded into each well of 96-well plates and incubated at 37 °C in a humidified 5% CO2 with 95% air atmosphere. After a 24 h incubation, 100 µL of medium with various product concentrations and appropriate controls were added and the plates were incubated for 72 h at 37 °C. Each plate-well was then microscope-examined for detecting possible precipitate formation before the medium was aspirated from the wells. 100 µL of MTT solution (0.5 mg/mL in complete MEM) were then added to each well. Cells were incubated for 1 h at 37 °C and the MTT solution was then removed, and DMSO (100 µL/well) was added to dissolve the resulting formazan crystals. Plates were shaken vigorously (300 rpm) for 5 min. The absorbance was measured at 570 nm with a microplate spectrophotometer (BIOTEK Eon). DMSO was used as blank and SDS as positive control. CC50 were calculated by non-linear regression analysis processed on dose-response curves, using TableCurve 2D V5 software.

Series [3] concerns Mycobacterium tuberculosis strain H37Rv. Briefly: Mycobacterial growth inhibition assay (colorimetric MTT micro assay, MIC). (Tetrazolium dyes change colour on reduction, which living cells bring about.)
The next series deals with M. smegmatis. Description: Antibacterial activity MIC, M. smegmatis. The note with it: Mycolicibacterium smegmatis.
Another series deals with E. coli. Briefly: Antibacterial activity MIC, E. coli. To be noted: Escherichia coli.
The next series has as its system M. kansasii. Description: Antibacterial activity MIC, M. kansasii. To be noted: Mycobacterium kansasii.
For another series, the system named is C. glutamicum. Briefly: Antibacterial activity MIC, C. glutamicum. The note with it: Corynebacterium glutamicum.
Setting [4] is: M. tuberculosis (Table 4), read-out: Antibacterial activity MIC M. tuberculosis.
The mark [5] stands for this setting: M. tuberculosis H37Rv, 7H9 broth, 6 days incubation then MTT 24 h, read-out: Anti-Mtb MIC.
Setting [6] is: read-out: Antibacterial activity MIC M. tuberculosis.

Consider `CCCCCCCCCCCC(O)C#CCO` (racemic) [Compound 1, Pentadec-2-yne-1,4-diol], for which the minimum inhibitory concentration (MIC) against M. abscessus is 2.5 µM (≈ 0.601 µg/mL); in series [3] (setting [4]), 1.25 µM (≈ 0.3 µg/mL); in series [3] (setting [5]), 1.25 µM (≈ 0.3 µg/mL). Moreover, the CC50 at 72 h in series [1] (HCT-116 colon cancer cells) worked out at 60 µM; in series [2] (African green monkey) it was 89 µM.

Regarding `C=C=C[C@@H](O)C#CCCCCCCCCCCCC` [(R)-19], the minimal inhibitory concentration (MIC) was 10 µM (≈ 2.62 µg/mL) against M. smegmatis; over 10 µM against E. coli; 5 µM (≈ 1.31 µg/mL) in the series with M. kansasii; over 10 µM with C. glutamicum; 2.5 µM (≈ 0.656 µg/mL) in series [3] (setting [6]).

Turning to `C=C=C[C@H](O)C#CCCCCCCCCCCCC` [(S)-19], the MIC against M. smegmatis is 10 µM (≈ 2.62 µg/mL); against E. coli, over 10 µM; in the series with M. kansasii, 2.5 µM (≈ 0.656 µg/mL); against C. glutamicum, over 10 µM; in series [3] (setting [6]), 2.5 µM (≈ 0.656 µg/mL).

Turning to `C#C[C@H](O)C#CCCCCCCCCCCCC` [(S)-20], the MIC against M. smegmatis is 2.5 µM (≈ 0.621 µg/mL); against E. coli, over 10 µM; with M. kansasii, 1.2 µM (≈ 0.298 µg/mL); in the series with C. glutamicum, 10 µM (≈ 2.48 µg/mL); in series [3] (setting [6]), 1.2 µM (≈ 0.298 µg/mL).

Take `CCCCCCCCCCCCC#CCO` [Comparative example A, reference compound]: the MIC against M. abscessus stood at 20 µM (≈ 4.49 µg/mL); in series [3] (setting [4]), 5 µM (≈ 1.12 µg/mL); in series [3] (setting [5]), 5 µM (≈ 1.12 µg/mL). The figures for the CC50 at 72 h in series [1] and in series [2] (monkey) were 120 µM and 187 µM, respectively.

Regarding `CCCCCCCCCCCC(O)C#CC(O)CC` (stereo not drawn) [Compound 6, Heptadec-4-yne-3,6-diol], the figures for the MIC (in the series with M. abscessus; in series [3] (setting [4]); in series [3] (setting [5])) were 10 µM (≈ 2.68 µg/mL), 2.5 µM (≈ 0.671 µg/mL) and 2.5 µM (≈ 0.671 µg/mL), respectively. The CC50 at 72 h worked out at 40 µM in series [1] (HCT-116 colon cancer cells) and 43.2 µM in series [2] (African green monkey).

With `C=CC(O)C#CCC(O)CCCCCCCCCC` (stereo not drawn) [Compound 12, Heptadec-1-en-4-yne-3,7-diol], the cytotoxic concentration (CC50) at 72 h in series [1] (HCT-116 colon cancer cells) turned out to be 2 µM; in series [2] (African green monkey), 12.5 µM. The MIC in series [3] (read-out: Anti-Mtb MIC) was 1.25 µM (≈ 0.333 µg/mL).

As to `C#CC(O)C#CCC(O)CCCCCCCCCC` (stereo not drawn) [Compound 14, Heptadeca-1,4-diyne-3,7-diol], the CC50 at 72 h was 2 µM in series [1] (HCT-116 colon cancer cells) and 174 µM in series [2] (African green monkey). The MIC in series [3] (read-out: Anti-Mtb MIC) worked out at 0.6 µM (≈ 0.159 µg/mL).

`CCCCCCCCCCC(O)CC#CC(O)c1ccccc1` (stereo not drawn) [Compound 15, 1-Phenylpentadec-2-yne-1,5-diol]: the results for the CC50 at 72 h in series [1] (HCT-116 colon cancer cells) and in series [2] (African green monkey) were 41 µM and 75 µM, respectively. Further, in series [3] (setting [5]), the MIC is 2.5 µM (≈ 0.791 µg/mL).

In the case of `CCCCCCCCCCC(O)CC#CC(O)CC` (stereo not drawn) [Compound 16, Heptadec-4-yne-3,7-diol], the CC50 at 72 h came to 51 µM in series [1] (HCT-116 colon cancer cells) and 75 µM in series [2] (African green monkey). For the same molecule, in series [3] (setting [5]), the minimum inhibitory concentration (MIC) worked out at 5 µM (≈ 1.34 µg/mL).

On to `CCCCCCCCCCC(O)CC#CC(O)C1CC1` (stereo not drawn) [Compound 17, 1-Cyclopropylpentadec-2-yne-1,5-diol], for which the values for the CC50 at 72 h in series [1] (HCT-116 colon cancer cells) and in series [2] (African green monkey) were 40 µM and 44.5 µM, respectively. The MIC in series [3] (setting [5]) came to 0.6 µM (≈ 0.168 µg/mL).

For the molecule `C=CC(O)C#CCCCCCCCCCCCC` (stereo not drawn) [Compound 18, Heptadec-1-en-4-yn-3-ol], the CC50 at 72 h in series [1] (HCT-116 colon cancer cells) amounted to 0.2 µM; in series [2] (African green monkey) it was 1 µM. Besides, the MIC in series [3] (read-out: Anti-Mtb MIC) turned out to be 2.5 µM (≈ 0.626 µg/mL).

On to `C#CC(O)C#CCCCCCCCCCCCC` (stereo not drawn) [Compound 20, Heptadeca-1,4-diyn-3-ol], for which the CC50 at 72 h in series [1] (HCT-116 colon cancer cells) came out at 0.1 µM; in series [2] (African green monkey) it was 0.8 µM. The MIC in series [3] (read-out: Anti-Mtb MIC) came out at 1.2 µM (≈ 0.298 µg/mL).

In the case of `CCCCCCCCCCCCC#CC(O)c1ccccc1` (stereo not drawn) [Compound 21, 1-Phenylpentadec-2-yn-1-ol], the CC50 at 72 h in series [1] (HCT-116 colon cancer cells) amounted to 50 µM; in series [2] (African green monkey) it was 58.7 µM. Also, the MIC in series [3] (setting [5]) amounted to 1.2 µM (≈ 0.361 µg/mL).

Consider `CCCCCCCCCCCCC#CC(O)CC` (stereo not drawn) [Compound 22, Heptadec-4-yn-3-ol], for which the results for the MIC (against M. abscessus; in series [3] (setting [4])) were over 20 µM and 2.5 µM (≈ 0.631 µg/mL), respectively. The CC50 at 72 h in series [1] (HCT-116 colon cancer cells) was 12 µM; in series [2] (African green monkey) it was over 50 µM.

For `CCCCCCCCCCCCC#CC(O)C1CC1` (stereo not drawn) [Compound 23, 1-Cyclopropylpentadec-2-yn-1-ol], the CC50 at 72 h was found to be 60 µM in series [1] (HCT-116 colon cancer cells) and 158 µM in series [2] (African green monkey). For the same molecule, the MIC in series [3] (setting [5]) is over 10 µM.

As for `C=C=CC(O)C#CCCCCCCCCC` (stereo not drawn) [Compound 28], the MIC in the series with M. smegmatis was over 10 µM; in the series with E. coli, over 10 µM; in the series on M. kansasii, 10 µM (≈ 2.2 µg/mL); with C. glutamicum, over 10 µM; in series [3] (setting [6]), 5 µM (≈ 1.1 µg/mL).
